From article PMC8123395, “Aggregation and Its Influence on the Bioactivities of a Novel Antimicrobial Peptide, Temporin-PF, and Its Analogues” (International Journal of Molecular Sciences, 2021)
No end group written: not given here.

Legend:
[1] = tested on: Escherichia coli (NCTC 10418); type: cell-based; conditions: NCTC 10418, pH 7.4
Protocol: (§1) The minimum inhibitory concentration (MIC) and minimum bactericidal concentration (MBC) of peptides against the selected microorganisms were determined using the broth-dilution method, as described in the previous study. […] were used in the assay: Gram-positive bacteria Staphylococcus aureus (NCTC 10788), Enterococcus faecalis (NCTC 12697), and methicillin-resistant S. aureus (MRSA) (NCTC 12493); Gram-negative bacteria Escherichia coli (NCTC 10418), Pseudomonas aeruginosa (ATCC 27853), and Klebsiella pneumoniae (ATCC 43816). All the strains were cultured in Mueller Hinton Broth (MHB), pH 7.4 (Oxiod, Basingstoke, UK). Each peptide was tested at the final concentration from 128 to 1 µM in two-fold dilution. Norfloxacin was applied as the positive control.

[2] = tested on: methicillin-resistant S. aureus (MRSA) (NCTC 12493); type: cell-based; conditions: NCTC 12493, pH 7.4
Protocol: as §1

[3] = tested on: Staphylococcus aureus (NCTC 10788); type: cell-based; conditions: NCTC 10788, pH 7.4
Protocol: as §1

[4] = tested on: Enterococcus faecalis (NCTC 12697); type: cell-based; conditions: NCTC 12697, pH 7.4
Protocol: as §1

[5] = tested on: Klebsiella pneumoniae (ATCC 43816); type: cell-based; conditions: ATCC 43816, pH 7.4
Protocol: as §1

[6] = tested on: Pseudomonas aeruginosa (ATCC 27853); type: cell-based; conditions: ATCC 27853, pH 7.4
Protocol: as §1

[7] = RP-HPLC retention order of mixed peptides (overall hydrophobicity); type: physicochemical; conditions: peptides mixed in equal ratio and subjected to RP-HPLC; Supplementary Figure S4
Protocol: All peptides were chemically synthesized and purified by RP-HPLC. They were further mixed with an equal ratio and subjected to RP-HPLC. […] Subsequently, all peptides (1 mg/mL) were dissolved in a series of widely used culture media (Figure 2).
N-terminal Phe of temporin was believed to participate in the packaging of “head-tail” oligomerization. […] Furthermore, Trp/D-Trp substitution carried out on des-Phe1 TPF enhanced the peptide aggregation. […] It may be related to the decrease of the helical content; however, it could also be caused by the change of aggregation effects. Previous studies have shown that AMPs with strong antimicrobial activity are present as monomers in an aqueous solution and aggregate on the membrane to disrupt the bacterial cell membrane. […] It has been proposed that some aggregation effects of AMPs could limit the interaction of the peptide with its target, thereby reducing the antibacterial efficacy. In the previous study, the zipper-like motif is associated with the bioactivities as well as the assembly in the LPS micelles, which was considered to arise from hydrophobic interactions mainly. However, the overall hydrophobicity of Trp/D-Trp substituted analogs is less than that of des-Phe1 TPF, as estimated by RP-HPLC analysis. We hypothesize that the enhanced assembly seen for Trp/D-Trp substituted analogs might be related to the increased content of aromatic residues, because it could promote the strength of π stacking or cation-π type interaction. However, the true relation has not been fully clarified so far, and the capability of aromatic moieties to promote aggregation could also be affected by the hydrophobicity, position, and the neighboring side chains in their three-dimensional conformation.

LPLIAGLFGKIF-NH2 [des-Phe1 TPF] showed an MBC [1] of 128 µM, an MIC [1] of 64 µM and an MBC [2] of 32 µM. For the same substance, the MIC [2] was 32 µM, the MBC [3] was 16 µM and the MIC [3] was 16 µM. The MBC [4] was 32 µM, the MIC [4] was 32 µM and the MBC [5] was 128 µM. The MIC [5] was 128 µM, the MBC [6] was greater than 128 µM and the MIC [6] was greater than 128 µM. For the same substance, the “order of retention time (RP-HPLC, used as estimate of overall hydrophobicity)” value [7] was “TPF> des-Phe1 TPF> W-des-Phe1 TPF> dW-des-Phe1 TPF”.
